Reference: article PMC12344683, “N-alkyl and N-benzyl indoles are anti-SARS-CoV-2 agents and nsp13 inhibitors” (Journal of Enzyme Inhibition and Medicinal Chemistry, 2025)

Experiments:
SARS-CoV-2 nsp13 [1] = target: T1, SARS-CoV-2 nsp13 (Severe acute respiratory syndrome coronavirus 2, UniProt P0DTD1); assay: SARS-CoV-2 nsp13 unwinding-associated activity (fluorescence, BSA-TCEP); type: biochemical; conditions: for IC50: SARS-CoV-2 nsp13-associated unwinding activity, from dose-response curves
SARS-CoV-2 nsp13 [2] = target: T1, SARS-CoV-2 nsp13; assay: SARS-CoV-2 nsp13 ATPase-associated activity (Biomol Green, BSA-TCEP); type: biochemical; conditions: for IC50: SARS-CoV-2 nsp13-associated ATPase activity, from dose-response curves
[3] = Cellular toxicity assay (GFP signal as viability); type: cell-based; conditions: African green monkey; Vero cells; read-out: CC50, concentration required to reduce Vero cells viability by 50%
Procedure: Vero E6-green fluorescent protein (GFP) cells (Janssen Pharmaceutical were maintained in Dulbecco’s modified Eagle’s medium (DMEM, Gibco) supplemented with 10% v/v foetal beef serum (FBS, Gibco), 0.075% Sodium Bicarbonate (7.5% solution, Gibco) and 1X Pen-strep (Euroclone) and kept under 5% CO2 on 37 ◦C. The cells were seeded at 10 000 cells/well in 96-well black cell-treated plates (PerkinElmer). The following day, cells were incubated with the control compounds at different concentrations. Compound was dissolved in 0.1% DMSO. Seventy-two hours post infection the GPF signal, as direct index of cellular viability, was quantified by measuring the total-well fluorescence with a Victor 3 multiplate reader (PerkinElmer) set to excitation and emission wavelengths of 485 and 535 nm, respectively.
The percentage of induced cytopathic effects (CPE) was calculated considering the mock as 100% of cell viability, and the readout from empty wells as blank. The compound half-maximal cytopathic concentration (CC50), was determined via non-linear regression by using on Prism 9 v. 9.4.1 software (GraphPad) the built-in function dose-response inhibition, log-concentration-normalized response. Experimental points represent the average and standard deviation of at least two sets of independent triplicates.

[4] = read-out: Activity in enzyme assay IC50 Unwinding BSA-TCEP
[5] = read-out: Activity in enzyme assay IC50 ATPase BSA-TCEP
[6] = Activity in enzyme assay IC50 Unwinding BSA-TCEP
[7] = Activity in enzyme assay IC50 ATPase BSA-TCEP

Row | Structure (SMILES) | IC50 (SARS-CoV-2 nsp13 [1]; [4]) | IC50 (SARS-CoV-2 nsp13 [2]; [5]) | other results
1 | COc1ccc(Cn2cc(/C=C/C(=O)/C=C(\O)C(=O)O)c3ccccc32)cc1 [5a, (2Z,5E)-2-hydroxy-6-(1-(4-methoxybenzyl)-1H-indol-3-yl)-4-oxohexa-2,5-dienoic acid] | 10.5 ± 0.81 µM | 19.9 ± 0.73 µM | 
2 | Cc1ccc(Cn2cc(/C=C/C(=O)/C=C(\O)C(=O)O)c3ccccc32)cc1 [5b] | 13.6 ± 1.96 µM | 3.83 ± 0.45 µM | 
3 | O=C(/C=C(\O)C(=O)O)/C=C/c1cn(Cc2ccc(F)cc2)c2ccccc12 [5d, (2Z,5E)-6-(1-(4-fluorobenzyl)-1H-indol-3-yl)-2-hydroxy-4-oxohexa-2,5-dienoic acid] | 7.63 ± 2.48 µM | 9.91 ± 0.5 µM | 
4 | O=C(/C=C(\O)C(=O)O)/C=C/c1cn(Cc2ccc(OC(F)(F)F)cc2)c2ccccc12 [5e] | 6.24 ± 0.24 µM | 6.41 ± 0.05 µM | CC50 at 72 h [3]: > 100 µM
5 | O=C(/C=C(\O)C(=O)O)/C=C/c1cn(S(=O)(=O)c2ccccc2)c2ccccc12 [5f] | 7.54 ± 0.76 µM | 5.36 ± 0.74 µM | 
6 | N#Cc1ccc(Cn2cc(/C=C/C(=O)/C=C(\O)C(=O)O)c3ccccc32)cc1 [5g, (2Z,5E)-6-(1-(4-cyanobenzyl)-1H-indol-3-yl)-2-hydroxy-4-oxohexa-2,5-dienoic acid] | 2.08 ± 0.04 µM | 1.91 ± 0.31 µM | CC50 at 72 h [3]: > 100 µM
7 | O=C(/C=C(\O)C(=O)O)/C=C/c1cn(Cc2ccc(O)cc2)c2ccccc12 [5h, (2Z,5E)-2-hydroxy-6-(1-(4-hydroxybenzyl)-1H-indol-3-yl)-4-oxohexa-2,5-dienoic acid] | 2.77 ± 0.42 µM | 9.1 ± 3.4 µM | 
8 | O=C(/C=C(\O)C(=O)O)/C=C/c1cn(Cc2ccc(F)cc2)c2ccc(Cl)cc12 [5i, (2Z,5E)-6-(5-chloro-1-(4-fluorobenzyl)-1H-indol-3-yl)-2-hydroxy-4-oxohexa-2,5-dienoic acid] | 0.47 ± 0.01 µM | 26.3 ± 2.52 µM | selectivity for unwinding over ATPase (SARS-CoV-2 nsp13 [1]; IC50 unwinding vs IC50 ATPase): 2 order of magnitude; gain in activity on unwinding with respect to the hit 4 (SARS-CoV-2 nsp13 [1]; ratio of IC50 values): 27 fold; CC50 at 72 h [3]: > 100 µM
9 | CCOC(=O)/C(O)=C/C(=O)/C=C/c1cn(Cc2ccc(OC)cc2)c2ccccc12 [6a, Ethyl (2Z,5E)-2-hydroxy-6-(1-(4-methoxybenzyl)-1H-indol-3-yl)-4-oxohexa-2,5-dienoate] | 6.65 ± 1.2 µM | 2.21 ± 0.26 µM | 
10 | CCOC(=O)/C(O)=C/C(=O)/C=C/c1cn(Cc2ccc(C)cc2)c2ccccc12 [6b] | 7.34 ± 1.81 µM | 2.88 ± 0.59 µM | 
11 | CCOC(=O)/C(O)=C/C(=O)/C=C/c1cn(Cc2ccc(C(C)C)cc2)c2ccccc12 [6c] | 5.81 ± 0.47 µM | 5.8 ± 0.12 µM | 
12 | CCOC(=O)/C(O)=C/C(=O)/C=C/c1cn(Cc2ccc(F)cc2)c2ccccc12 [6d, Ethyl (2Z,5E)-6-(1-(4-fluorobenzyl)-1H-indol-3-yl)-2-hydroxy-4-oxohexa-2,5-dienoate] | 3.64 ± 0.11 µM | 3.22 ± 0.14 µM | 
13 | CCOC(=O)/C(O)=C/C(=O)/C=C/c1cn(Cc2ccc(OC(F)(F)F)cc2)c2ccccc12 [6e] | 5.66 ± 0.21 µM | 2.17 ± 0.26 µM | CC50 at 72 h [3]: > 100 µM
14 | CCOC(=O)/C(O)=C/C(=O)/C=C/c1cn(S(=O)(=O)c2ccccc2)c2ccccc12 [6f] | 11 ± 0.37 µM | 7.07 ± 0.74 µM | 
15 | CCOC(=O)/C(O)=C/C(=O)/C=C/c1cn(Cc2ccc(C#N)cc2)c2ccccc12 [6g, Ethyl (2Z,5E)-6-(1-(4-cyanobenzyl)-1H-indol-3-yl)-2-hydroxy-4-oxohexa-2,5-dienoate] | 6.76 ± 1.18 µM | 6.24 ± 0.24 µM | 
16 | CCOC(=O)/C(O)=C/C(=O)/C=C/c1cn(Cc2ccc(O)cc2)c2ccccc12 [6h, Ethyl (2Z,5E)-2-hydroxy-6-(1-(4-hydroxybenzyl)-1H-indol-3-yl)-4-oxohexa-2,5-dienoate] | 15.4 ± 1.47 µM | 3.7 ± 0.74 µM | 
17 | CCOC(=O)/C(O)=C/C(=O)/C=C/c1cn(Cc2ccc(F)cc2)c2ccc(Cl)cc12 [6i, Ethyl (2Z,5E)-6-(5-chloro-1-(4-fluorobenzyl)-1H-indol-3-yl)-2-hydroxy-4-oxohexa-2,5-dienoate] | 5.22 ± 0.44 µM | 3.92 ± 0.96 µM | 
18 | COc1ccc(Cn2cc(C(=O)/C=C(\O)C(=O)O)c3ccccc32)cc1 [7a] |  |  | IC50 (SARS-CoV-2 nsp13 [1]; [6]): > 30 µM; remaining activity at 30 µM (SARS-CoV-2 nsp13 [1]; read-out: Percentage of enzymatic residual activity (unwinding)): 50.4%; IC50 (SARS-CoV-2 nsp13 [2]; [7]): > 30 µM; remaining activity at 30 µM (SARS-CoV-2 nsp13 [2]; read-out: Percentage of enzymatic residual activity (ATPase)): 73.4%
19 | Cc1ccc(Cn2cc(C(=O)/C=C(\O)C(=O)O)c3ccccc32)cc1 [7b] |  |  | IC50 (SARS-CoV-2 nsp13 [1]; [6]): 20.6 ± 3.22 µM; IC50 (SARS-CoV-2 nsp13 [2]; [7]): 8.33 ± 0.45 µM
20 | CC(C)c1ccc(Cn2cc(C(=O)/C=C(\O)C(=O)O)c3ccccc32)cc1 [7c] |  |  | IC50 (SARS-CoV-2 nsp13 [1]; [6]): 14.1 ± 0.48 µM; IC50 (SARS-CoV-2 nsp13 [2]; [7]): 13 ± 1.08 µM
